Test results taken from patent publication US11117907B2, “Curcuminoid-inspired synthetic compounds as anti-tumor agents” (University of North Florida Board of Trustees, priority 2017, dated 2021).

Compared with `COc1ccc(/C=C/C(=O)/C=C(O)\C=C\c2ccc(OC)c(OC)c2OC)c(OC)c1OC` [compound 7 of FIG. 35, (1E,4E,6E)-5-Hydroxy-1,7-bis(2,3,4-trimethoxyphenyl)hepta-1,4,6-trien-3-one], `COc1ccc(C=Cc2cc(C=Cc3ccc(OC)c(OC)c3OC)on2)c(OC)c1OC` [compound 40 of FIG. 43, 3,5-bis-(2,3,4-Trimethoxystyryl)-isoxazole] is higher in melting point: 104 to 106 °C for the first, 136 to 137 °C for the second.

First: COc1cc(C=Cc2cc(C=Cc3cc(OC)c(OC)c(OC)c3)n(-c3ccccc3)n2)cc(OC)c1OC [compound 41 of FIG. 43, 3,5-bis-(3,4,5-Trimethoxy-styryl)-1-phenylpyrazole]
Second: COc1cc(C=Cc2cc(C=Cc3cc(OC)c(OC)c(OC)c3)n(-c3ccc(OC(F)(F)F)cc3)n2)cc(OC)c1OC [compound 42 of FIG. 43, 3,5-bis-(3,4,5-Trimethoxy-styryl)-1-(4-trifluoromethoxyphenyl) pyrazole]
The melting point of the first is higher: 144 to 146 °C for the first, 140 to 142 °C for the second.

First: FC(F)(F)Sc1ccc(C=Cc2cc(C=Cc3ccc(SC(F)(F)F)cc3)n(-c3cccc(C(F)(F)F)c3)n2)cc1 [compound 29 of FIG. 43, 3,5-bis-(4-trifluoromethylthiostyryl)-1-(3-trifluoromethylphenyl)pyrazole]
Second: FC(F)(F)Sc1ccc(C=Cc2cc(C=Cc3ccc(SC(F)(F)F)cc3)n(-c3ccccc3)n2)cc1 [compound 28 of FIG. 43, 3,5-bis-(4-Trifluoromethylthiostyryl)-1-phenylpyrazole]
The melting point of the first is higher: 121 to 122 °C for the first, 119 to 121 °C for the second.

Compared with `Fc1ccc(C=Cc2cc(C=Cc3ccc(F)cc3)n(-c3ccc(F)c(F)c3)n2)cc1` [compound 34 of FIG. 43, 3,5-bis-(4-Fluorostyryl)-1-(3,4-difluorophenyl)pyrazole], `Fc1ccc(C=Cc2cc(C=Cc3ccc(F)cc3)n(-c3cccc(C(F)(F)F)c3)n2)cc1` [compound 33 of FIG. 43, 3,5-bis-(4-Fluorostyryl)-1-(3-trifluoromethylphenyl)pyrazole] is lower in melting point: 169 to 170 °C for the first, 98 to 100 °C for the second.

First: COc1cc(F)c(/C=C/C(=O)C(F)(F)C(=O)/C=C/c2cc(OC)c(OC)cc2F)cc1OC [compound 16 of FIG. 2, (1E,6E)-4,4-Difluoro-1,7-bis(3,4-dimethoxy-6-fluorophenyl)hepta-1,6-diene-3,5-dione]
Second: COc1cc(F)c(/C=C/C(=O)/C(F)=C(O)/C=C/c2cc(OC)c(OC)cc2F)cc1OC [compound 17 of FIG. 2, (1E,4E,6E)-4-Fluoro-5-hydroxy-1,7-bis(3,4-dimethoxy-6-fluorophenyl)hepta-1,4,6-trien-3-one]
The melting point of the first is higher: 162 to 163 °C for the first, 148 to 150 °C for the second.

Compared with `FC(F)(F)Sc1ccc(C=Cc2cc(C=Cc3ccc(SC(F)(F)F)cc3)on2)cc1` [compound 30 of FIG. 43, 3,5-bis-(4-Trifluoromethylthiostyryl)-isoxazole], `FC(F)(F)c1ccc(C=Cc2cc(C=Cc3ccc(C(F)(F)F)cc3)n(-c3ccccc3)n2)cc1` [compound 37 of FIG. 43, 3,5-bis-(4-Trifluoromethylstyryl)-1-phenylpyrazole] is lower in melting point: 165 to 167 °C for the first, 137 to 139 °C for the second.

First: O=C(/C=C/c1cccc(OC(F)(F)F)c1)/C=C(O)\C=C\c1cccc(OC(F)(F)F)c1 [compound 15 of FIG. 35, (1E,4E,6E)-5-Hydroxy-1,7-bis(3-trifluoromethoxyphenyl)hepta-1,4,6-trien-3-one]
Second: O=C(/C=C/c1ccc(OC(F)(F)F)cc1)/C=C(O)\C=C\c1ccc(OC(F)(F)F)cc1 [compound 17 of FIG. 35, (1E,4E,6E)-5-Hydroxy-1,7-bis(4-trifluoromethoxyphenyl)hepta-1,4,6-trien-3-one]
The melting point of the first is lower: 68 to 70 °C for the first, 108 to 111 °C for the second.

First: O=C(/C=C/c1ccc(F)c(F)c1F)/C=C(O)\C=C\c1ccc(F)c(F)c1F [compound 21 of FIG. 35, (1E,4E,6E)-5-Hydroxy-1,7-bis(2,3,4-trifluorophenyl)hepta-1,4,6-trien-3-one]
Second: COc1cc(F)c(/C=C/C(=O)/C=C(O)\C=C\c2cc(OC)c(OC)cc2F)cc1OC [compound 15 of FIG. 2, (1E,4E,6E)-5-Hydroxy-1,7-bis(3,4-dimethoxy-6-fluorophenyl)hepta-1,4,6-trien-3-one]
The melting point of the first is higher: 156 to 158 °C for the first, 154 to 156 °C for the second.

First: O=C(/C=C/c1ccc(C(F)(F)F)cc1)C(F)(F)C(=O)/C=C/c1ccc(C(F)(F)F)cc1 [compound 21 of FIG. 2, (1E,6E)-4,4-Difluoro-1,7-bis(4-trifluoromethyl-phenyl)hepta-1,6-diene-3,5-dione]
Second: O=C(/C=C/c1ccc(C(F)(F)F)cc1)/C(F)=C(O)/C=C/c1ccc(C(F)(F)F)cc1 [compound 22 of FIG. 2, (1E,4E,6E)-4-Fluoro-1,7-bis(4-trifluoromethyl-phenyl)-5-hydroxy-hepta-1,4,6-trien-3-one]
The melting point of the first is lower: 75 to 76 °C for the first, 144 to 146 °C for the second.

Compared with `COc1cc(F)c(C=Cc2cc(C=Cc3cc(OC)c(OC)cc3F)n(-c3cc(F)cc(F)c3)n2)cc1OC` [compound 25 of FIG. 43, 3,5-bis-(6-Fluoro-3,4-dimethoxystyryl)-1-(3,5-difluorophenyl) pyrazole], `COc1cc(F)c(C=Cc2cc(C=Cc3cc(OC)c(OC)cc3F)n(-c3cccc(C(F)(F)F)c3)n2)cc1OC` [compound 24 of FIG. 43, 3,5-bis-(6-Fluoro-3,4-dimethoxystyryl)-1-(3-trifluoromethylphenyl)pyrazole] is higher in melting point: 115 to 117 °C for the first, 130 to 134 °C for the second.

First: COc1cc(F)c(C=Cc2cc(C=Cc3cc(OC)c(OC)cc3F)n(-c3ccc(OC(F)(F)F)cc3)n2)cc1OC [compound 23 of FIG. 43, 3,5-bis-(6-Fluoro-3,4-dimethoxystyryl)-1-(4-trifluoromethoxyphenyl)pyrazole]
Second: COc1cc(F)c(C=Cc2cc(C=Cc3cc(OC)c(OC)cc3F)n(-c3ccc(C#N)cc3)n2)cc1OC [compound 26 of FIG. 43, 3,5-bis-(6-Fluoro-3,4-dimethoxystyryl)-1-(4-cyanophenyl)pyrazole]
The melting point of the first is lower: 80 to 83 °C for the first, 91 to 93 °C for the second.

First: COc1ccc(/C=C/C(=O)C(F)(F)C(=O)/C=C/c2ccc(OC)c(OC)c2)cc1OC [compound 7 of FIG. 2, (1E,6E)-4,4-Difluoro-1,7-bis(3,4-dimethoxyphenyl)hepta-1,6-diene-3,5-dione]
Second: COc1ccc(/C=C/C(=O)/C(F)=C(O)/C=C/c2ccc(OC)c(OC)c2)cc1OC [compound 8 of FIG. 2, (1E,4E,6E)-4-Fluoro-5-hydroxy-1,7-bis(3,4-dimethoxyphenyl)hepta-1,4,6-trien-3-one]
The melting point of the first is higher: 148 to 149 °C for the first, 145 to 146 °C for the second.

First: COc1cc(/C=C/C(=O)/C(F)=C(O)/C=C/c2ccc(O)c(OC)c2)ccc1O [compound 4 of FIG. 2, (1E,4E,6E)-4-Fluoro-5-hydroxy-1,7-bis(4-hydroxy-3-methoxyphenyl)hepta-1,4,6-trien-3-one]
Second: O=C(/C=C/c1ccc(F)cc1)/C(F)=C(O)/C=C/c1ccc(F)cc1 [compound 13 of FIG. 2, (1E,4E,6E)-4-Fluoro-1,7-bis(4-fluorophenyl)-5-hydroxy-hepta-1,4,6-trien-3-one]
The melting point of the first is higher: 154 to 155 °C for the first, 152 to 153 °C for the second.

First: COc1cc(F)c(C=Cc2cc(C=Cc3cc(OC)c(OC)cc3F)n(-c3ccccc3)n2)cc1OC [compound 22 of FIG. 43, 3,5-bis-(6-Fluoro-3,4-dimethoxystyryl)-1-phenylpyrazole]
Second: Fc1ccc(C=Cc2cc(C=Cc3ccc(F)cc3)n(-c3ccccc3)n2)cc1 [compound 31 of FIG. 43, 3,5-bis-(4-Fluorostyryl)-1-phenylpyrazole]
The melting point of the first is higher: 142 to 144 °C for the first, 109 to 111 °C for the second.

First: O=C(/C=C/c1cc2ccccc2o1)/C=C(O)\C=C\c1cc2ccccc2o1 [compound 9 of Example 5, (1E,4E,6E)-5-Hydroxy-1,7-bis(benzo[b]furan-2-yl)hepta-1,4,6-trien-3-one]
Second: O=C(/C=C/c1csc2ccccc12)/C=C(O)\C=C\c1csc2ccccc12 [compound 7 of Example 5, (1E,4E,6E)-5-Hydroxy-1,7-bis(benzo[b]thiophen-3-yl)hepta-1,4,6-trien-3-one]
The melting point of the first is higher: 178 to 180 °C for the first, 159 to 160 °C for the second.

Compared with `O=C(/C=C/c1ccc(OCc2ccccc2)c(OCc2ccccc2)c1)/C=C(O)\C=C\c1ccc(OCc2ccccc2)c(OCc2ccccc2)c1` [compound 5 of FIG. 35, (1E,4E,6E)-5-Hydroxy-1,7-bis(3,4-dibenzyloxyphenyl)hepta-1,4,6-trien-3-one], `COc1ccc(/C=C/C(=O)/C=C(O)\C=C\c2ccc(OC)c(OCc3ccccc3)c2)cc1OCc1ccccc1` [compound 3 of FIG. 35, (1E,4E,6E)-5-Hydroxy-1,7-bis(3-benzyloxy-4-methoxyphenyl)hepta-1,4,6-trien-3-one] is higher in melting point: 150 to 153 °C for the first, 153 to 155 °C for the second.

First: N#Cc1ccc(-n2nc(C=Cc3ccc(F)cc3)cc2C=Cc2ccc(F)cc2)cc1 [compound 35 of FIG. 43, 3,5-bis-(4-Fluorostyryl)-1-(4-cyanophenyl)pyrazole]
Second: Fc1ccc(C=Cc2cc(C=Cc3ccc(F)cc3)n(-c3ccc(OC(F)(F)F)cc3)n2)cc1 [compound 32 of FIG. 43, 3,5-bis-(4-Fluorostyryl)-1-(4-trifluoromethoxyphenyl)pyrazole]
The melting point of the first is higher: 209 to 211 °C for the first, 155 to 156 °C for the second.

First: O=C(/C=C/c1ccc(C(F)(F)F)cc1)/C=C(O)\C=C\c1ccc(C(F)(F)F)cc1 [compound 20 of FIG. 2, (1E,4E,6E)-1,7-Bis(4-trifluoromethyl-phenyl)-5-hydroxy-hepta-1,4,6-trien-3-one]
Second: O=C(/C=C/c1ccc(F)cc1)C(F)(F)C(=O)/C=C/c1ccc(F)cc1 [compound 12 of FIG. 2, (1E,6E)-4,4-Difluoro-1,7-bis(4-fluorophenyl)hepta-1,6-diene-3,5-dione]
The melting point of the first is higher: 153 to 154 °C for the first, 72 to 73 °C for the second.

Work on `COc1cc(F)c(/C=C/C(=O)C(F)C(=O)/C=C/c2cc(OC)c(OC)cc2F)cc1OC` [compound 18 of FIG. 2, (1E,6E)-4-Fluoro-1,7-bis(3,4-dimethoxy-6-fluorophenyl)hepta-1,6-diene-3,5-dione] yielded a melting point greater than 260 °C.
